What all share (experiment): biochemical
Holding throughout (set-up): KINOMEscan scanMAX active site-directed competition binding assay, percent of control, 468 kinases
Details in all cases: competition binding, percent of control

The target in one test is T1, RIPK5 (Homo sapiens, UniProt Q6XUX3).
T1 construct: gene DSTYK
How it is done: (§1) The KINOMEscan^TM screening platform (scanMAX assay) employs a proprietary active site-directed competition binding assay that quantitatively measures the interactions between test compounds (here 100 μM S-carvone) and 468 human protein kinases. The assay was performed at Eurofins DiscoverX Corp. (Fremont, CA, USA). Blocking protein kinase C (PKC) activity was reported to inhibit the transcription of CYP1A1 but to exert no effect on the nuclear translocation of AhR[26], which was also the case here with carvones. Therefore, we tested whether carvones inhibit PKC catalytic activity. […] We also evaluated the interaction between 100 μM S-carvone and 468 human protein kinases, employing KINOMEscan^TM (scanMAX assay), a proprietary active site-directed competition binding assay. The minimal inhibitory threshold used by the screening platform KINOMEscan^TM is 35% of the control kinase activity. Among 468 kinases tested, 467 were above the 35% cutoff. Tyrosine kinase 2 TK2 (JH2 domain pseudokinase) activity was inhibited to 27% of the control activity, but this kinase is not relevant to the regulation of transcription activity (Fig. 5B; Figure S9). Overall, we excluded the possibility that the effects of carvones on AhR signaling are caused indirectly by the inhibition of the human kinome, particularly PKC.

The target of another test is KIT-autoinhibited (Homo sapiens, UniProt P10721). How it is done:
as §1

Another test addresses TNK2 (Homo sapiens, UniProt Q07912). As for the experimental part:
as §1

A further test concerns the target AURKA (Homo sapiens, UniProt O14965). How it is done:
as §1

In the next test the target is FGFR4 (Homo sapiens, UniProt P22455). How it is done:
as §1

The target in the next test is PIK3CA(E545A) (Homo sapiens, UniProt P42336, E545A). As for the experimental part: as §1
The target of another test is T2, MST4 (Homo sapiens, UniProt Q9P289).
T2 construct: gene STK26
How it is done: as §1

Another test concerns the target T3, PKAC-alpha (Homo sapiens, UniProt P17612).
T3 construct: gene PRKACA
How it is done: as §1

A further test addresses FLT3(ITD) (Homo sapiens, UniProt P36888, ITD). As for the experimental part: as §1
In another test the target is ACVRL1 (Homo sapiens, UniProt P37023). How it is done: as §1
Another test deals with PRKCQ (Homo sapiens, UniProt Q04759). As for the experimental part: as §1
For a further test, the target named is ERBB4 (Homo sapiens, UniProt Q15303). As for the experimental part: as §1
The target in the next test is T4, MEK6 (Homo sapiens, UniProt P52564).
T4 construct: gene MAP2K6
As for the experimental part: as §1

Another test concerns the target PLK1 (Homo sapiens, UniProt P53350). How it is done:
as §1

The next test concerns the target RIPK4 (Homo sapiens, UniProt P57078). As for the experimental part:
as §1

The target in a further test is ACVR1B (Homo sapiens, UniProt P36896). As for the experimental part:
as §1

Another test has as its target CSNK1D (Homo sapiens, UniProt P48730). As for the experimental part:
as §1

A further test addresses WNK1 (Homo sapiens, UniProt Q9H4A3). How it is done:
as §1

In a further test the target is T5, MLCK (Homo sapiens, UniProt Q32MK0).
T5 construct: gene MYLK3
How it is done: as §1

For a further test, the target named is CLK1 (Homo sapiens, UniProt P49759). As for the experimental part: as §1
A further test addresses ERBB2 (Homo sapiens, UniProt P04626). How it is done: as §1
In a further test the target is ROS1 (Homo sapiens, UniProt P08922). How it is done: as §1

Chain of TNK2 (Q07912 whole entry): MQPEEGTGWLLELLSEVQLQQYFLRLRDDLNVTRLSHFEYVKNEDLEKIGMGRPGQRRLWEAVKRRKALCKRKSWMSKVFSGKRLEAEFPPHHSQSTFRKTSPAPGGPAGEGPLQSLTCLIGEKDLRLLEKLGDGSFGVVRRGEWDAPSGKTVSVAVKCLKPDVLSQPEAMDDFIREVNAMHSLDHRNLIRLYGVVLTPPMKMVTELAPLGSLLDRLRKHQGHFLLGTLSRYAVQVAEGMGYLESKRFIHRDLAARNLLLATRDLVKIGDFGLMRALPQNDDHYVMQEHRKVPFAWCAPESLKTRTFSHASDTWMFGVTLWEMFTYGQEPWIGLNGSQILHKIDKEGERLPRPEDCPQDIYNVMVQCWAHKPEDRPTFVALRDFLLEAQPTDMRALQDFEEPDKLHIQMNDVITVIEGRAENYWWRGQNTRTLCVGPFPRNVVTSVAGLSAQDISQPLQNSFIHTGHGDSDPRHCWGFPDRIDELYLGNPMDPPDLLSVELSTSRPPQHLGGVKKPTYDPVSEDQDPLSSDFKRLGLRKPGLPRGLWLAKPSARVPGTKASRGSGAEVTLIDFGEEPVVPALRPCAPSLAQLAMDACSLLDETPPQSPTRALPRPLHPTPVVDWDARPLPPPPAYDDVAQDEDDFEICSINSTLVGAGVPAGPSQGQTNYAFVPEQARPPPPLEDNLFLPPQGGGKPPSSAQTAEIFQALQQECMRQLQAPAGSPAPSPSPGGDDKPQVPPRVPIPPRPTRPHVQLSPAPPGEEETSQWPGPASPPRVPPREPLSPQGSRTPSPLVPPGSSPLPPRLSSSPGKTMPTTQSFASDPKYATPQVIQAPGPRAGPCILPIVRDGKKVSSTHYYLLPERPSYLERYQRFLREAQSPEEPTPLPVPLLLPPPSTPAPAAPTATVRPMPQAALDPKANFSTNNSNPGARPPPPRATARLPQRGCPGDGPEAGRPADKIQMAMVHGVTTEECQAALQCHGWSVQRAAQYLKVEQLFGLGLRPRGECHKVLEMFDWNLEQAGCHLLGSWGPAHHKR
Chain of ERBB2 (P04626 whole entry): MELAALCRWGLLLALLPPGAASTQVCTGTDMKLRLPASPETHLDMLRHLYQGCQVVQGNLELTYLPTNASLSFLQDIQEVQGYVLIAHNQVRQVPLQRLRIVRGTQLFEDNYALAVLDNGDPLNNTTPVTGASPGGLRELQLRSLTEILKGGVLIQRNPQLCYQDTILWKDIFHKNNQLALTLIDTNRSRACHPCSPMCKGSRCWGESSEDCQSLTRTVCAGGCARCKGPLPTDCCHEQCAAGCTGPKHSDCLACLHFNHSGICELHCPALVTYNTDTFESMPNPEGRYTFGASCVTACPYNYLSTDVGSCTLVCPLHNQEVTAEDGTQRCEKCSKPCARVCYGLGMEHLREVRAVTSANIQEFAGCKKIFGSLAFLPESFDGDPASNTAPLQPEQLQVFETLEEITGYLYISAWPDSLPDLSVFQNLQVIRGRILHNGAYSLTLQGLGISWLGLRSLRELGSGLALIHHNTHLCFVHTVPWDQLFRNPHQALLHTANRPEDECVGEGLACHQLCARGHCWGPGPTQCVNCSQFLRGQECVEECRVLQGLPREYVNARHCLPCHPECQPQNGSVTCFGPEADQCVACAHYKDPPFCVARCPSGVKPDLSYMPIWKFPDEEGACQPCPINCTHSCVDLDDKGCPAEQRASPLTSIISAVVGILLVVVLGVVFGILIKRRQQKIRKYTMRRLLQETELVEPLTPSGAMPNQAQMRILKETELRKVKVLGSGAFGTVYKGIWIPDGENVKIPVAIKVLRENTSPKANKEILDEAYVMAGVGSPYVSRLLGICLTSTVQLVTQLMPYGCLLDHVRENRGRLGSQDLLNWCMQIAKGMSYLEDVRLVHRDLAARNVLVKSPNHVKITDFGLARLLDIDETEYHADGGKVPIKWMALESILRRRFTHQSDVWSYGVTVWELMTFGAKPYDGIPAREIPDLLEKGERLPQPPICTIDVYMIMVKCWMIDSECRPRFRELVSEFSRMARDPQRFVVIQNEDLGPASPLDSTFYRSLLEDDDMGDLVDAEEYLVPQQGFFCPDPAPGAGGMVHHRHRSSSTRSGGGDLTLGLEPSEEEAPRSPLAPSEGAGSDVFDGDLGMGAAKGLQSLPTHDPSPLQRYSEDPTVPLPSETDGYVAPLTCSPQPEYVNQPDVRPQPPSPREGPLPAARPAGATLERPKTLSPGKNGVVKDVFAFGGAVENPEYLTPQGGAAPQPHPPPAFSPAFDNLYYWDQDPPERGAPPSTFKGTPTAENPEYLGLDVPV
Chain of CLK1 (P49759 whole entry): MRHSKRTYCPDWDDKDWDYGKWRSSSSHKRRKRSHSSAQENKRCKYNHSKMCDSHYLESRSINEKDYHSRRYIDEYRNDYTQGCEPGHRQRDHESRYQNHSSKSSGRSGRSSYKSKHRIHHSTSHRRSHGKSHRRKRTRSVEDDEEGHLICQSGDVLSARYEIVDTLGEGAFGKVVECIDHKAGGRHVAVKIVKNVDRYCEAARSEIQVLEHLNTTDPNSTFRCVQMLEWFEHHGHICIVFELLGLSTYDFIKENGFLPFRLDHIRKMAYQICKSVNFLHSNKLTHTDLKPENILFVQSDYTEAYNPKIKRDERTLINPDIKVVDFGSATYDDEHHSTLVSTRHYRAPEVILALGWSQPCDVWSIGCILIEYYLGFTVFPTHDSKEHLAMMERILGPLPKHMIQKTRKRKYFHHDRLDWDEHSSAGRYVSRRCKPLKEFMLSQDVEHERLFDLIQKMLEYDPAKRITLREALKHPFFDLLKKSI
Chain of PLK1 (P53350 whole entry): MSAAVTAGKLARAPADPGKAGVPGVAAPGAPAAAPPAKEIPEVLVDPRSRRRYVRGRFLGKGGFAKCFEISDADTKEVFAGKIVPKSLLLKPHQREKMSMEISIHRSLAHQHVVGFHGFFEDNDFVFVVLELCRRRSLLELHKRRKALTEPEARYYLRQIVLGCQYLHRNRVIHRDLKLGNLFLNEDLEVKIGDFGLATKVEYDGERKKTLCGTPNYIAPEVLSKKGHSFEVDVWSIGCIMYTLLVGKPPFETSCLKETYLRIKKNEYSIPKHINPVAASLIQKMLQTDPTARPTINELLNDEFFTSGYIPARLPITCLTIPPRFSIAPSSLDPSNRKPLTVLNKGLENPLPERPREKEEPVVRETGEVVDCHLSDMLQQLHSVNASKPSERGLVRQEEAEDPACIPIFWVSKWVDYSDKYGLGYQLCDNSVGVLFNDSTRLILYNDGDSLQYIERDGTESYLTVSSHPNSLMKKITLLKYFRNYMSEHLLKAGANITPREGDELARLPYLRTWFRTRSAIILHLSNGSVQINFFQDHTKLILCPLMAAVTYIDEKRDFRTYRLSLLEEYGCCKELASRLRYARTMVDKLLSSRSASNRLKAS
Chain of ACVR1B (P36896 whole entry): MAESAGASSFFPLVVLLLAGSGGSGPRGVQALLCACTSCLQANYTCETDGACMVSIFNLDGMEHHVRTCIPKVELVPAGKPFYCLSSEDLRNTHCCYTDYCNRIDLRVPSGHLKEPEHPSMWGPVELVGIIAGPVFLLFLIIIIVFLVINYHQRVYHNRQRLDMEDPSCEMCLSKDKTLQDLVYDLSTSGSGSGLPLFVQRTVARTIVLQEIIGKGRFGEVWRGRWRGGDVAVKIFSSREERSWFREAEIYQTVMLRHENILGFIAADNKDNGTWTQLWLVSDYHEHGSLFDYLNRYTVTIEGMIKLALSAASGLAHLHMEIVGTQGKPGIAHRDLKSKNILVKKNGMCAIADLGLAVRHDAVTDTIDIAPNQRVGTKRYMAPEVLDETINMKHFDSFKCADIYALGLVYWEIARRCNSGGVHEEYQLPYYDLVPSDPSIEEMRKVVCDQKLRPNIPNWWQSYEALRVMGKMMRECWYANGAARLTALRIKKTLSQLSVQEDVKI
Chain of FLT3(ITD) (P36888 564-993, change not shown): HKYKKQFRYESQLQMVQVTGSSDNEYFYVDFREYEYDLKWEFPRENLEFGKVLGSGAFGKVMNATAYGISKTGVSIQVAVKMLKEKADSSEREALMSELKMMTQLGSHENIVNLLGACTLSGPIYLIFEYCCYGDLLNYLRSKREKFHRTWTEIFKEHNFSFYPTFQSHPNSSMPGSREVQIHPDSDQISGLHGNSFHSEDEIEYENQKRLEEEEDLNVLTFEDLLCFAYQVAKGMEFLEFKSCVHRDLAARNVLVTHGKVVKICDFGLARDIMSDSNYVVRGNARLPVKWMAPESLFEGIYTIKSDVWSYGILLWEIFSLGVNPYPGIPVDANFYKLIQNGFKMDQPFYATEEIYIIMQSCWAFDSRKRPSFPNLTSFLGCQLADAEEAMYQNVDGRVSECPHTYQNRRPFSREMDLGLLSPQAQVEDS
Chain of ACVRL1 (P37023 whole entry): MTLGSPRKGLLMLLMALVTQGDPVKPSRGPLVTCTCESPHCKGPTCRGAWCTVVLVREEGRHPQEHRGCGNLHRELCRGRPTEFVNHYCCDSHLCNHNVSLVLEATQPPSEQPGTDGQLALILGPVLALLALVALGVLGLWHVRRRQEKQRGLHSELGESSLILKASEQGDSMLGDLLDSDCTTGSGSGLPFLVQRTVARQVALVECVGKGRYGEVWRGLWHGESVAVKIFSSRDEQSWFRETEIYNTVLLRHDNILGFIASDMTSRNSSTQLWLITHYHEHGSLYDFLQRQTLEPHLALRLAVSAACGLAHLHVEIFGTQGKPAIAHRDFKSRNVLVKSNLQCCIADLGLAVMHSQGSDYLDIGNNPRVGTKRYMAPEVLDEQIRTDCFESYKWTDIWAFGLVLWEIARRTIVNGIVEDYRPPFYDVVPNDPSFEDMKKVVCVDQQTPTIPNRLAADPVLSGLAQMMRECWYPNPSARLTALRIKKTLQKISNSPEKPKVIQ

`C=C(C)[C@H]1CC=C(C)C(=O)C1` [S-carvone]: the remaining binding at 100 µM at RIPK5 came to 61%; at KIT-autoinhibited, 74%; on TNK2, 93%; at AURKA, 81%; on FGFR4 it was 92%; at PIK3CA(E545A), 70%. The remaining binding at 100 µM at MST4 came out at 100%; at PKAC-alpha, 85%; on FLT3(ITD), 92%; on ACVRL1 it was 88%; on PRKCQ it was 75%; on ERBB4 it was 81%. Further, the remaining binding at 100 µM on MEK6 worked out at 82%; on PLK1, 68%; on RIPK4, 64%; on ACVR1B it was 98%; at CSNK1D it was 68%; on WNK1 it was 86%. Also, the remaining binding at 100 µM amounted to 98% at MLCK, 94% at CLK1, 83% on ERBB2 and 83% at ROS1.

(Values after publication PMC10174618, “Monoterpenoid aryl hydrocarbon receptor allosteric antagonists protect against ultraviolet skin damage in female mice” (Nature Communications, 2023).)
